Measured values as given in patent US12492403B2, “Aptamers and the use thereof in the treatment of cancer” (FUNDACIÓN PARA LA INVESTIGACIÓN BIOMÉDICA DEL HOSPITAL …, priority 2018, dated 2025).

Test system: MCF7, MDA-MB-231, and MDAMB-468 cells
Assay: Aptamer penetration into cells (Alexa-488 fluorescence microscopy)
Assay type: cell-based, human
Details: Alexa fluor 488-conjugated aptamer 250 nM added to medium, 24 hours, compared with lipofectamine transfection
Procedure: FIGS. 16A & 16B. Study of aptamer apMNKQ2 penetration into cells. MCF7, MDA-MB-231, and MDAMB-468 cells were seeded in 24-well plates with a cover glass at a density of 3×10^4 cells/well, with the transfection/addition of apMNKQ2 labeled with Alexa-488 at 250 nM at 24 hours. Twenty-four hours after transfection, the cells were fixed, stained with Hoechst, and mounted on slides with Prolong™ mounting medium. The number refers to the intensity of the aptamer measured with the imageJ program and expressed in arbitrary units.
To analyze cell penetration by apMNKQ2, 3×10^4 cells/well were seeded on cover glasses and the structured, Alexa fluor 488-conjugated aptamer at 250 nM was added to the cell medium at 24 hours. In parallel, the aptamer was transfected with lipofectamine at the same concentration. After 24 hours, the cells were fixed and stained with Hoechst.

## 5′TGGGGTGGGCGGGCGGGGGTGGGGGTGGT-3′ (DNA, backbone and methylation of C not given here; further chemistry not fully specified) [apMNKQ2]
  penetration into cells without transfectant: capable of only entering the cells, although with a lower intensity
